Assay [1] concerns Fibroblast growth factor receptor 3 (Homo sapiens), P22607 [K650M]. The assay can be described thus: (§1) Selectivity interaction (ProQinase) EUB0000171b FGFR3.
Assay [2] concerns Fibroblast growth factor receptor 3 (Homo sapiens), P22607 [K650E]. Described as §1.
For assay [3], the target named is Fibroblast growth factor receptor 3 (Homo sapiens, UniProt P22607). Described as §1.
For assay [4], the system named is Fibroblast growth factor receptor 3 (Homo sapiens), P22607 [G697C]. The assay is described as §1.
The target in assay [5] is T1, Tyrosine-protein kinase Tec (Homo sapiens) (UniProt P42680).
T1 sequence (whole entry): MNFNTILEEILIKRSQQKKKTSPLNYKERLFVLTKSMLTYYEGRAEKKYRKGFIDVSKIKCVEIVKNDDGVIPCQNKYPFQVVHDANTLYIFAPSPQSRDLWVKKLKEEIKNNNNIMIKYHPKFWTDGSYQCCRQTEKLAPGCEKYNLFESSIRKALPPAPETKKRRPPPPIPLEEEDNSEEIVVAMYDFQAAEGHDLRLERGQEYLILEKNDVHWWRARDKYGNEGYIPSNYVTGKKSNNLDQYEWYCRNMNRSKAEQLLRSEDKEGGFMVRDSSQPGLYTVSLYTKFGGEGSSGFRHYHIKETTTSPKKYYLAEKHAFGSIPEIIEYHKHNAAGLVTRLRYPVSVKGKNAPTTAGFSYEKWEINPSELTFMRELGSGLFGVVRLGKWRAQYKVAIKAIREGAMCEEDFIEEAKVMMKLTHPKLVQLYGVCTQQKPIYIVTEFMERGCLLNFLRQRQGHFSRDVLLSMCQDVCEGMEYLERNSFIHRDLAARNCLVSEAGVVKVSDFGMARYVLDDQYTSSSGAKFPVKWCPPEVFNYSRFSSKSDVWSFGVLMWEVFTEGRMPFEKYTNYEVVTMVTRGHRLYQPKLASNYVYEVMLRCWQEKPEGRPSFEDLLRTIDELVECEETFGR
Particulars: at 10 µM.

Assay [6] addresses cAMP-dependent protein kinase catalytic subunit beta (Homo sapiens) (UniProt P22694). Put plainly: Selectivity interaction (KinomeScan (DiscoverX)) EUB0000655a PRKACB. Particulars: at 10 µM.
In assay [7] the target is Kappa-type opioid receptor (Homo sapiens, UniProt P41145). The assay can be described thus: Selectivity interaction (Panel of kinases, GPCRs, ion channels and transporters (enzymatic assay)) EUB0000223bCl OPRK1.
In assay [8] the target is Mitogen-activated protein kinase kinase kinase kinase 1 (Homo sapiens) (UniProt Q92918). Put plainly: Selectivity interaction (KinomeScan (DiscoverX)) EUB0000666a MAP4K1. The settings on record: at 10 µM.
The target in assay [9] is T2, Phosphatidylinositol 4,5-bisphosphate 3-kinase catalytic subunit delta isoform (Homo sapiens) (UniProt O00329).
T2 sequence (whole entry): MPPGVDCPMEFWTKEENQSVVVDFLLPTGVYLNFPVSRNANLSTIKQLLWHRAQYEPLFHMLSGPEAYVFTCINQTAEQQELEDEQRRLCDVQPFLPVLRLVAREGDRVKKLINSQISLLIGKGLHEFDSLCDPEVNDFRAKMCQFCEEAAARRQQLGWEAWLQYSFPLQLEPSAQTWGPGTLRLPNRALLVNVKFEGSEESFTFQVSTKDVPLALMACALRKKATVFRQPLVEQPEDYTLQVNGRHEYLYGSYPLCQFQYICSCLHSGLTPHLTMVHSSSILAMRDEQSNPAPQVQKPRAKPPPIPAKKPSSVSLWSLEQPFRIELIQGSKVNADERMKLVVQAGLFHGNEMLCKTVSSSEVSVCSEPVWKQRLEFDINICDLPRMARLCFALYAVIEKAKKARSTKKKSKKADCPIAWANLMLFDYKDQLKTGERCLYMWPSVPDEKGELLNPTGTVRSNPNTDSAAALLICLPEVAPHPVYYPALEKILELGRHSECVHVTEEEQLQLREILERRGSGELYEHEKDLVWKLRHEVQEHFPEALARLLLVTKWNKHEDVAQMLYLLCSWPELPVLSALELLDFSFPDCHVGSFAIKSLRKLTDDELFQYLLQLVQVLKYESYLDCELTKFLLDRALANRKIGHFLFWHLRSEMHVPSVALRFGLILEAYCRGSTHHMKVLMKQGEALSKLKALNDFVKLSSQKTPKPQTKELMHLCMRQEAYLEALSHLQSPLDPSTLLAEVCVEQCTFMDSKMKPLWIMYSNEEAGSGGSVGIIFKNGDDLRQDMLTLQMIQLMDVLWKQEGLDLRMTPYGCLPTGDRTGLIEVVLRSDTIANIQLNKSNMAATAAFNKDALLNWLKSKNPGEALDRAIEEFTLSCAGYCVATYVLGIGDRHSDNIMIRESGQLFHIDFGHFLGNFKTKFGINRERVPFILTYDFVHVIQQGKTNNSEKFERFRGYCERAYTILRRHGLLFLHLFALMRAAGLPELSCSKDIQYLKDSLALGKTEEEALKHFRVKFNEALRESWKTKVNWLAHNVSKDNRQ
The assay can be described thus: Selectivity interaction (KinomeScan (DiscoverX)) EUB0000607a PIK3CD. The settings on record: at 10 µM.

In assay [10] the test system is Tyrosine-protein kinase ABL1 (Homo sapiens), P00519 [T315I]. Put plainly: Selectivity interaction (KinomeScan (DiscoverX)) EUB0000607a ABL1. The settings on record: at 10 µM.
The target of assay [11] is T3, TGF-beta receptor type-1 (Homo sapiens) (UniProt P36897).
T3 sequence (whole entry): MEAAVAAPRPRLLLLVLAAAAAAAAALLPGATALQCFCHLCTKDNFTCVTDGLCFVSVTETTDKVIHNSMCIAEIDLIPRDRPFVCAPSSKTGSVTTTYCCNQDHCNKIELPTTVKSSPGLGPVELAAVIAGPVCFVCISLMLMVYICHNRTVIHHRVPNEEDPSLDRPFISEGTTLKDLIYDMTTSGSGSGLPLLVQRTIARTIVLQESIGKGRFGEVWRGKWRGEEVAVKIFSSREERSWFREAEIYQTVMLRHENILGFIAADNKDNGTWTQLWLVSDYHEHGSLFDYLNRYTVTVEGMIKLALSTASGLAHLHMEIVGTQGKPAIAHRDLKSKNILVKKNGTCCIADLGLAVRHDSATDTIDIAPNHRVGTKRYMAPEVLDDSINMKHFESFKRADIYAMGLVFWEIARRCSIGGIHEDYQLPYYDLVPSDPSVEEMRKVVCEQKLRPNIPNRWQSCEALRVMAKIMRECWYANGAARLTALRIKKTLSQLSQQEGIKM
The assay can be described thus: Selectivity interaction (Kinase panel (Invitrogen)) EUB0000639a TGFBR1. The settings on record: at 200 nM.

Assay [12] addresses Tyrosine-protein kinase ABL2 (Homo sapiens, UniProt P42684). The assay can be described thus: Selectivity interaction (ActivX KiNativ screen (kinase selectivity in THP-1 cell lysates)) EUB0000639a ABL2. It counts as subcellular. Particulars: lysate, at 0.2 µM.

Fibroblast growth factor receptor 3 (Homo sapiens), P22607 [K650M], sequence (P22607 whole entry K650M): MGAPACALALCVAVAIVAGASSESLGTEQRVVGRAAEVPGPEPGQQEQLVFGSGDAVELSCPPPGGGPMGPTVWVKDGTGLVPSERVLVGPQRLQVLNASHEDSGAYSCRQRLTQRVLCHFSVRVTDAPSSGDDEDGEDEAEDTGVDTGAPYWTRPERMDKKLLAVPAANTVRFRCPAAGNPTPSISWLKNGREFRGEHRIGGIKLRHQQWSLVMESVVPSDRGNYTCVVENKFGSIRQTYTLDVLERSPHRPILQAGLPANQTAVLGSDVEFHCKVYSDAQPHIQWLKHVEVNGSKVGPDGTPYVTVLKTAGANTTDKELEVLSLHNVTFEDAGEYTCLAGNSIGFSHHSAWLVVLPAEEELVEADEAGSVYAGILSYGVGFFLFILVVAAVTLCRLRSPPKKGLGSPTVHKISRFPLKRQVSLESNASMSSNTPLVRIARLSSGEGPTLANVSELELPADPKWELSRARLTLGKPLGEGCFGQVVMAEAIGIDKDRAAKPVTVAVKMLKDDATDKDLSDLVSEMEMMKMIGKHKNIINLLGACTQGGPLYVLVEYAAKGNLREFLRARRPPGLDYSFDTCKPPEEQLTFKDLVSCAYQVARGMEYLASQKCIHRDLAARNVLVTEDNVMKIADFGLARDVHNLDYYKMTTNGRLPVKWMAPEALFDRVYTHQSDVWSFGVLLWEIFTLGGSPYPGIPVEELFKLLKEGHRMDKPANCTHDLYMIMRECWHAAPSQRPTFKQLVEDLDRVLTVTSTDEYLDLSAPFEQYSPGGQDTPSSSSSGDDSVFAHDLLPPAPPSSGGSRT
Fibroblast growth factor receptor 3, sequence (P22607 23-806 limits assumed): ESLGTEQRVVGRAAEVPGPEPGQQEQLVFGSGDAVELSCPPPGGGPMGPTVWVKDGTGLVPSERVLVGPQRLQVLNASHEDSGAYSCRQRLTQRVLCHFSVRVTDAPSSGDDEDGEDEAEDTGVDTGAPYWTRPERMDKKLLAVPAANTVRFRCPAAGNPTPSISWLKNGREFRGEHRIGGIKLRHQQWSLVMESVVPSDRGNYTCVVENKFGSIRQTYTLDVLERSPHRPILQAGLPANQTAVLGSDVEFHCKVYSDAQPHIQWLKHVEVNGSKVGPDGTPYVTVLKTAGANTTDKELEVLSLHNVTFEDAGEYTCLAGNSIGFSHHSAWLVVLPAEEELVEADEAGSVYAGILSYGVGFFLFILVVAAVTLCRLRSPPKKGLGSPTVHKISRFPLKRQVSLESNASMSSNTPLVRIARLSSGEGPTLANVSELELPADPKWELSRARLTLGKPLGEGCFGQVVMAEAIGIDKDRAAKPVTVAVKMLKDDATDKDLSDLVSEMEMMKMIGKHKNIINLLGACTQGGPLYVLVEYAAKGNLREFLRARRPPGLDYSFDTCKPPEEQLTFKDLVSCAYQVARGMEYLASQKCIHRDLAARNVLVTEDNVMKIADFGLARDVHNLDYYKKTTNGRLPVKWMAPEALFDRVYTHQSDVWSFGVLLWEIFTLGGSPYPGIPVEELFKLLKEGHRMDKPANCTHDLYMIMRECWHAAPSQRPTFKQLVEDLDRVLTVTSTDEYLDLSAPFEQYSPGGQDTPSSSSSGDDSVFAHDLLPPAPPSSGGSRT
Fibroblast growth factor receptor 3 (Homo sapiens), P22607 [G697C], sequence (P22607 whole entry G697C): as the sequence (P22607 whole entry K650M) above, with M650K, G697C counted along it
Fibroblast growth factor receptor 3 (Homo sapiens), P22607 [K650E], sequence (P22607 whole entry K650E): as the sequence (P22607 whole entry K650M) above, with M650E counted along it
Kappa-type opioid receptor, sequence (P41145 whole entry): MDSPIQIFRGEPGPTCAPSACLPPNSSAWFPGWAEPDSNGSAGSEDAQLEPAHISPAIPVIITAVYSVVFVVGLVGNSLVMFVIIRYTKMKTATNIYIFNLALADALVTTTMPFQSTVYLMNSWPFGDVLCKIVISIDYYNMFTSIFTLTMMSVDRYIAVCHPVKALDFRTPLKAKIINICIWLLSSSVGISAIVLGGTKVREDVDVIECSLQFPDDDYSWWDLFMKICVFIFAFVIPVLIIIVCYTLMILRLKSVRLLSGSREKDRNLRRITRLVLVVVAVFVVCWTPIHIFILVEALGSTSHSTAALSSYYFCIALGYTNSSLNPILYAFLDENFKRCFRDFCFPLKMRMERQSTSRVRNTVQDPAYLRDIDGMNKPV
Mitogen-activated protein kinase kinase kinase kinase 1 (Homo sapiens), sequence (Q92918 whole entry, looked up, canonical isoform): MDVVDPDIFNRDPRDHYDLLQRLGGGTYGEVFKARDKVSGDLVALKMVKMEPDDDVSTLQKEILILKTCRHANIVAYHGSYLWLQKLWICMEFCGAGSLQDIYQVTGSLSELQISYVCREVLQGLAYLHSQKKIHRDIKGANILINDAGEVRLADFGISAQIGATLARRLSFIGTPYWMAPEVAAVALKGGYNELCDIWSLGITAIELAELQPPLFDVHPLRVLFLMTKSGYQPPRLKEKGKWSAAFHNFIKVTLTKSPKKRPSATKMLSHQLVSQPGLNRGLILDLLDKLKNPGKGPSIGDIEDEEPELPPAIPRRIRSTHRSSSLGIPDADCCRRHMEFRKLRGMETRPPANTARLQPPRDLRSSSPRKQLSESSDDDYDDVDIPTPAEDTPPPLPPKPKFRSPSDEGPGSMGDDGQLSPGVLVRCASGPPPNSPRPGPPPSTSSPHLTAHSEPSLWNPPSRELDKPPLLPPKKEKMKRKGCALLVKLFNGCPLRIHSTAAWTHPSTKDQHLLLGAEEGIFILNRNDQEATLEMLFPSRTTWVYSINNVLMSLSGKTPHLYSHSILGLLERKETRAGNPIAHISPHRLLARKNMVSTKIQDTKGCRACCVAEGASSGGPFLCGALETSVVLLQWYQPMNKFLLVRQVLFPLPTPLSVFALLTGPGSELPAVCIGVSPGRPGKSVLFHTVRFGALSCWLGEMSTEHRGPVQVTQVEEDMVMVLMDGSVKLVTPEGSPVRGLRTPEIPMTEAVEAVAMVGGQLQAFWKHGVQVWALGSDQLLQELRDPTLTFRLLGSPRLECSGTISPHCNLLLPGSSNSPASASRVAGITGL
Tyrosine-protein kinase ABL2, sequence (P42684 whole entry): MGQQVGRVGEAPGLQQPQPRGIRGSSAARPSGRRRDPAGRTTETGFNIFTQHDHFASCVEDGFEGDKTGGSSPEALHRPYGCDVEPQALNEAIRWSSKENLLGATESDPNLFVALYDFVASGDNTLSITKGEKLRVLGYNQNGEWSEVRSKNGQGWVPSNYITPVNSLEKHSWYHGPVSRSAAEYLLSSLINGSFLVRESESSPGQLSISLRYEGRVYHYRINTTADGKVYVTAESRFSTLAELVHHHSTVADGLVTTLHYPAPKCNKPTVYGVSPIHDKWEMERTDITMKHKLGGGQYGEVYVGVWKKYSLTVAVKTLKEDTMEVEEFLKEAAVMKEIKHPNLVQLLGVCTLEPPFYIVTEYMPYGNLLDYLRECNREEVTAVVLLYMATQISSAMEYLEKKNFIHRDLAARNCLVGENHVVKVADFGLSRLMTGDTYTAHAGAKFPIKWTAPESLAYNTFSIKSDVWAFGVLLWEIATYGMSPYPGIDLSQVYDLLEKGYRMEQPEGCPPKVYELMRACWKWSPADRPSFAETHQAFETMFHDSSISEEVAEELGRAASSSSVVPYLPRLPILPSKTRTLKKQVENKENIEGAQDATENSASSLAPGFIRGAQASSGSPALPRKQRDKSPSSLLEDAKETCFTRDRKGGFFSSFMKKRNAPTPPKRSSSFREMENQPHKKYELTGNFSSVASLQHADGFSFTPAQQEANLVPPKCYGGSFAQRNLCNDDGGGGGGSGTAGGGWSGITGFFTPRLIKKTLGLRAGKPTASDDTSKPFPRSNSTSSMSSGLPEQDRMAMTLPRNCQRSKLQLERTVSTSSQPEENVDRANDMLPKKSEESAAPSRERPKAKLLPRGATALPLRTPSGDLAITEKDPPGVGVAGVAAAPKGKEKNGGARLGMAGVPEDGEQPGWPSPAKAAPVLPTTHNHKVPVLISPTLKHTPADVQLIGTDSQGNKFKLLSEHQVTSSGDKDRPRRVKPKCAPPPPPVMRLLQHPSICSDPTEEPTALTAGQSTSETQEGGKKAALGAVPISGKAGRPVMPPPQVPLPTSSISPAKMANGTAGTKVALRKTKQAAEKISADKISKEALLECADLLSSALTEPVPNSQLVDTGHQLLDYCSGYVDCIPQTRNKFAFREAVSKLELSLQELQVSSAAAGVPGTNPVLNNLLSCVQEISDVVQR

For the molecule `C=CC(=O)Nc1cccc(C(=O)Nc2ccc(Nc3cc(-c4[nH]c(SC)nc4C)ccn3)cc2)c1`, the % of control in assay [1] (at 1 µM) turned out to be 97%; in [1] (at 5 µM), 72%; in [2] (at 1 µM), 104%; in assay [2] (at 5 µM), 79%; in assay [3] (at 1 µM) it was 98%; in assay [3] (at 5 µM), 78%. Also, the figures for the % of control in assay [4] (at 1 µM) and in assay [4] (at 5 µM) were 103% and 83%, respectively.
With `Cc1cc([C@@H](C)Nc2ccccc2C(=O)O)c2nc(N3CCOCC3)cc(=O)n2c1` [AZD-6482], the % of control in assay [5] stood at 91%.
`CN(C)CCOc1ccc(-c2nc(-c3ccncc3)c(-c3ccc4c(c3)CC/C4=N\O)[nH]2)cc1` gave a % of control in assay [6] of 74%.
Molecule `COc1cc(C(=O)N2CC[C@@H](O)[C@@H](N)C2)cc2nc(-c3cc4ccccc4n3CC3CC3)n(C)c12` registered a pXC50 in assay [7] of 4.1 M.
For the molecule `O=C(NOC[C@H](O)CO)c1ccc(F)c(F)c1Nc1ccc(I)cc1F`, in assay [8], the % of control stood at 77%.
For `CNC(=O)Nc1ccc(-c2nc(N3CC4CCC(C3)O4)c3cnn(C4CCC5(CC4)OCCO5)c3n2)cc1`, the % of control in assay [9] was determined as 5.7%; in assay [10], 80%.
As for `CC[C@@H]1[C@H](F)C(=O)N[C@@H]1COc1nccc2cc(C(N)=O)c(OC)cc12` [ZIMLOVISERTIB], the % of inhibition was 27.1% in assay [11] and -42.6% in assay [12].

For the origin of these results see ChEMBL document CHEMBL5465560, “Selectivity Literature for EUbOPEN Chemogenomic Library” (2024).
